74 compounds from PubChem BioAssay AID1996 can be followed below.

One may read the kinetic solubility as solubility judged after dilution from a stock solution rather than from solid.

In brackets after ≈: the same amount, converted by molar mass.

For this series the following is noted: buffer; pH 7.4; 200.0 µM.
Compound `CC(C)NS(=O)(=O)c1ccc(NC(=O)Cc2ccsc2)cc1` showed a kinetic solubility of more than 50.8 µg/mL.
To `CNc1snc(C)c1C(=O)OC(C)C(=O)Nc1ccccc1` (centres undefined) belongs 34.5 µg/mL (≈ 108 µM); to `CCOC(=O)c1ccc(N=C(C)c2c(O)[nH]c(=O)[nH]c2=O)cc1`, 6.6 µg/mL (≈ 20.8 µM); to `COC(=O)c1c(C)oc(C)c1S(=O)(=O)N1CCCCC1`, 34.8 µg/mL (≈ 115 µM).
`COc1cccc(NC(=O)C(c2ccccc2)N2CCCC2)c1` (centres undefined) came in with a solubility (kinetic) of more than 46.6 µg/mL.
To `Oc1ccc(C=NC2CCCCC2)cc1` belongs 16.6 µg/mL (≈ 81.7 µM); to `COc1cc(N)c(Cl)cc1C(=O)OCC(=O)NC(=O)NCc1ccco1`, 5.3 µg/mL (≈ 13.9 µM); to `CC(=O)Nc1ccc(-c2nc3ccccc3o2)cc1`, 1.3 µg/mL (≈ 5.15 µM).
Take `O=C1NC(c2cccc([N+](=O)[O-])c2)=CCN1c1ccccc1O`: the solubility (kinetic) was 45.2 µg/mL (≈ 145 µM).
`CCCCNC(=O)c1cc2c(=O)n3cccc(C)c3nc2s1` gave a solubility (kinetic) of 1.3 µg/mL (≈ 4.12 µM).
The compound `Cc1ccc(-c2cc(C(=O)N3CCOCC3)no2)cc1` showed a solubility (kinetic) of more than 40.8 µg/mL.
Compound `O=C(NCc1ccccc1Cl)NCc1ccccc1Cl` returned a kinetic solubility of 1.1 µg/mL (≈ 3.56 µM).
To `CCOC(=O)c1ccc(S(=O)(=O)N2CCN(CCc3ccncc3)CC2)cc1` belongs more than 60.5 µg/mL; to `Cc1cccc(NC(=O)CN(CCc2ccccc2)S(C)(=O)=O)c1`, more than 52 µg/mL; to `CC1CN(C(=O)CSc2nc(N)cc(N)n2)CC(C)O1` (centres undefined), more than 44.6 µg/mL.
Next, `O=C(NC1CCCCCCC1)c1cccnc1`: 32.5 µg/mL (≈ 140 µM); `Cc1ccc(C(=O)OCC(=O)N2CC(C)OC(C)C2)cc1` (centres undefined): more than 43.7 µg/mL; `Cc1ccsc1/C=N/N1CCOCC1`: more than 31.5 µg/mL.
`COc1cc(/C=C2\SC(N)=NC2=O)cc(Br)c1O` came in with a kinetic solubility of 1.7 µg/mL (≈ 5.16 µM).
To `Clc1cccc(C2CCN(Cc3nc(CC4CC4)no3)C2)c1` (centres undefined) belongs 12.3 µg/mL (≈ 38.7 µM); to `CCOc1ccccc1N1CC(C(=O)NC2CCCCCC2)CC1=O` (centres undefined), 45.7 µg/mL (≈ 133 µM).
Next, `Cc1cccc(Nc2nc(NCc3ccco3)nc(N)c2[N+](=O)[O-])c1`: less than 0.1 µg/mL; `Cc1c(C(=O)O)[nH]c2c1C(=O)CC(c1ccc(C(C)(C)C)cc1)C2` (centres undefined): more than 48.8 µg/mL.
Take `Cc1ccc(Cn2ccsc2=NC(=O)COC(=O)c2ccc(O)cc2O)cc1`: the kinetic solubility worked out at 2.7 µg/mL (≈ 6.78 µM).
The compound `O=C1CC(C(=O)N2CCN(c3ccccc3)CC2)CN1Cc1ccccc1` (centres undefined) yielded a solubility (kinetic) of more than 54.5 µg/mL.
`Cc1cc(C)cc(NS(=O)(=O)Cc2ccccc2)c1` gave a kinetic solubility of 39.5 µg/mL (≈ 143 µM).
To `CN1CC(=O)Nc2ccc([N+](=O)[O-])cc2C1=O` belongs more than 35.3 µg/mL.
Regarding `CC(Nc1cccc(C(=O)NC2CC2)c1)c1nnc(-c2ccccc2)o1` (centres undefined), the kinetic solubility is more than 52.3 µg/mL.
To `O=[N+]([O-])c1ccccc1Nc1ccccc1` belongs 1.1 µg/mL (≈ 5.13 µM); to `Cc1c(OCC(=O)N(C)C)ccc2c(-c3ccccc3)cc(=O)oc12`, 13.6 µg/mL (≈ 40.3 µM); to `O=C(NC1C2CC3CC(C2)CC1C3)C1CCCCC1` (centres undefined), 1.6 µg/mL (≈ 6.12 µM).
`COc1ccc(C2=NOC(C(=O)Nc3cccnc3)C2)cc1OC` (centres undefined) yielded a kinetic solubility of 46.8 µg/mL (≈ 143 µM).
To `CC(CNC(=O)c1ccccc1[N+](=O)[O-])NC(=O)c1ccccc1[N+](=O)[O-]` (centres undefined) belongs more than 55.9 µg/mL.
To `COc1ccccc1Oc1ccc(NC(=O)Cc2ccccc2)cc1` belongs less than 0.7 µg/mL; to `Cc1ccc(C(=O)O/N=C(\N)Cc2cccs2)c(Cl)c1`, 15.2 µg/mL (≈ 49.2 µM).
Next, `Cc1cc(N2CCNCC2)nc2ccccc12`: 33.3 µg/mL (≈ 146 µM).
`CCc1nc2ccc(Cc3ccc4nc(CC)[nH]c4c3)cc2[nH]1` yielded a solubility (kinetic) of more than 45.7 µg/mL.
To `CCCCc1ccc(NC(=O)Nc2cccnc2)cc1` belongs 4 µg/mL (≈ 14.9 µM).
To `COc1ccc(NS(=O)(=O)c2ccc(O)c(NS(=O)(=O)c3ccc(NC(C)=O)cc3)c2)cc1` belongs more than 73.7 µg/mL; to `CC(CN1C(C)CCCC1C)OC(=O)c1ccccc1Cl` (centres undefined), more than 46.5 µg/mL.
Next, `COc1ccc(C(=O)O/N=C(\N)c2ccc(OC)c(OC)c2)cc1`: 9.3 µg/mL (≈ 28.2 µM); `Cc1ccc(NC(=O)C2CCC(N3C(=O)C4CCCCC4C3=O)CC2)cc1` (centres undefined): 52.2 µg/mL (≈ 142 µM).
The compound `Cc1cc[n+](CC(=O)Nc2ccccc2)cc1.[Br-]` gave a solubility (kinetic) of 45.4 µg/mL.
To `CCOC(=O)C[N+]1(C)CCN(C(C)=O)CC1.[Br-]` belongs more than 46.4 µg/mL; to `O=C(CCNc1ccccc1)c1cccc([N+](=O)[O-])c1`, 32.7 µg/mL (≈ 121 µM).
To `Cc1ccn2cc(CCNC(=O)COc3ccccc3)nc2c1` belongs 40.6 µg/mL (≈ 131 µM); to `O=C(Nc1ccccc1)O/N=C/c1ccc(F)cc1`, 12.8 µg/mL (≈ 49.6 µM); to `O=C(COC(=O)c1ccc(F)cc1)NC1CC1`, more than 35.6 µg/mL.
Next, `CCOc1ccc(NC(=O)C2CC(=O)N(Cc3ccco3)C2)cc1` (centres undefined): more than 49.3 µg/mL; `CCOc1ccc(C(=O)OCC(=O)N2CCCC2)cc1`: more than 41.6 µg/mL.
The compound `Cc1ccc2c(c1)N(CC(=O)N1CCCCCC1)C(=O)C(C)O2` (centres undefined) returned a kinetic solubility of more than 47.5 µg/mL.
For the compound `CC(C)(C)C1CCC(N2CCN(c3ccccc3)CC2)CC1` (centres undefined), the solubility (kinetic) came out at 0.5 µg/mL (≈ 1.66 µM).
As for `O=C(Nc1ccc(N2CCCCC2)cc1)c1ccc2ccccc2n1`, the kinetic solubility was less than 0.2 µg/mL.
To `O=C(Nc1sc2c(c1C(=O)O)CCC2)c1ccccc1F` belongs more than 45.8 µg/mL.
In turn, `NS(=O)(=O)c1ccc(CCNC(=O)COC(=O)/C=C/c2cc(Br)ccc2F)cc1` gave a kinetic solubility of 30.2 µg/mL (≈ 62.2 µM).
Next, `O=C(N[C@@H]1C[C@H]2CC[C@@H]1C2)c1ccco1`: 29.8 µg/mL (≈ 145 µM); `CC1(C)CC(=O)N(c2cc(Cl)ccc2Cl)C(=O)C1`: 14.7 µg/mL (≈ 51.4 µM); `O=C(c1cccc([N+](=O)[O-])c1)c1ccc2c(c1)C(=O)NC2=O`: 6.3 µg/mL (≈ 21.3 µM).
The compound `c1ccc2[nH]c(-c3cscn3)nc2c1` came in with a kinetic solubility of more than 30.2 µg/mL.
As for `Cc1cc(C)c(C)c(OCCN2CCOCC2)c1`, the kinetic solubility was found to be 27.3 µg/mL (≈ 109 µM).
To `O=C(O)C1CCCCC1C(=O)NCc1ccc(Cl)c(Cl)c1` (centres undefined) belongs 35.6 µg/mL (≈ 108 µM); to `CC(C)CNP(=S)(c1ccccc1)C(C)(C)C` (centres undefined), 1.7 µg/mL (≈ 6.31 µM).
Regarding `CSc1ccccc1C(=O)C1CCCN(Cc2ccccn2)C1` (centres undefined), the kinetic solubility turned out to be 44.8 µg/mL (≈ 137 µM).
Next, `COc1ncnc2c1ncn2CC1COC(C)(C)O1` (centres undefined): 34.9 µg/mL (≈ 132 µM).
`CC(=O)OCc1c(-c2ccccc2)c2cc([N+](=O)[O-])ccc2n1C` gave a solubility (kinetic) of 0.7 µg/mL (≈ 2.16 µM). This solubility kinetic is about 50-fold lower than that of the compound before.
To `CCNc1nc(SCC(=O)OC)nc(N(C)C)n1` belongs more than 40.7 µg/mL; to `Cc1ccccc1C(=O)N1CCC(C(=O)Oc2ccc(C#N)cc2)CC1`, more than 52.3 µg/mL; to `Cc1cccc(NC(=O)C(=O)C2C(=O)Nc3ccccc32)c1` (centres undefined), more than 44.1 µg/mL.
In turn, `COc1cccc(NC(=O)c2cnc[nH]2)c1` displayed a kinetic solubility of 30.5 µg/mL (≈ 140 µM).
On to `N#Cc1ccc(NC(=O)CN2CCCCCC2)cc1Cl`, for which the kinetic solubility was found to be 26.4 µg/mL (≈ 90.5 µM). This solubility kinetic and that of the compound before are within 1.5-fold of each other.
Next, `COCCN(CC(=O)Nc1cccc(C)c1C)C(=O)C1(c2ccc(Cl)cc2)CCC1`: 33.8 µg/mL (≈ 78.8 µM).
To `CCOc1ccc(C2NC(=O)Cc3cc(OC)c(OC)cc32)cc1` (centres undefined) belongs more than 49.1 µg/mL.
Next, `OCCC1CN(Cc2nc3ccccc3[nH]2)CCN1C1CCCC1` (centres undefined): more than 49.3 µg/mL; `S=C(Nc1ccccc1)N(Cc1ccccc1)Cc1ccncc1`: 39.2 µg/mL (≈ 118 µM).
